Assay results: patent US7662750B2, “Protein-protein interaction antagonist screening libraries based upon 1,4-disubstituted naphthalenes and related scaffolds” (The Research Foundation of State University of New York, priority 2003, dated 2010)
Values belong to the compound of their own block, whether it stands above or below them.

Legend:
[1] = target: T1, HOXA1-PBX1/DNA (Mus musculus, UniProt P41778); experiment: EMSA, formation of HOXA1-PBX1/DNA ternary complex; format: binding; settings: for Selectivity for HOXA1-PBX1/DNA ternary complex relative to the other complexes tested: versus PBX1/DNA, BRN1/DNA, BRN2/DNA
T1 construct: the mouse/human 233-319 PBX1 protein
T1 sequence (P41778 233-319): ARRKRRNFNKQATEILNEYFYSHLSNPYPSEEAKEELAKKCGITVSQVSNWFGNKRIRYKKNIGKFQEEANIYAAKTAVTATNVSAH

[2] = target: T2, PBX1/DNA (Mus musculus, UniProt P41778); experiment: EMSA, formation of PBX1/DNA binary complex (FIG. 1); format: binding; settings: for Inhibition of formation of the PBX1/DNA binary complex: FIG. 1
T2 construct: the mouse/human 233-319 PBX1 protein
T2 sequence (P41778 233-319): T1 sequence (P41778 233-319)
Excerpt: Antagonist 31 differs from compound 15 by replacing the small cyclopropyl R1 with the larger 4-hydroxyphenyl group. […] On the other hand, both antagonists can bind in the hydrophobic pocket thereby preventing HOXA1 from binding to the binary complex. Upon closer evaluation of the compound 31 dose-response of the binary PBX/DNA band intensity relative to the ternary HOXA1-PBX/DNA band intensity, it was noted that the binary PBX/DNA band initially “increased” in intensity at low compound 31 concentrations. […] As the concentration of compound 31 is further increased, the binary PBX/DNA complex formation is inhibited enough to overcome the release of this binary complex from the ternary complex and, therefore, the binary band intensity begins to decrease.

[3] = target: T3, BRN2/DNA (Mus musculus, UniProt P31360); experiment: EMSA, BRN2/DNA complex (nuclear extracts from RA treated P19 cells); format: binding; settings: EMSA with BRN2 recognition element probe
T3 construct: using nuclear extracts from RA treated P19 cells; endogenous in cells; host or cells: RA-treated P19 cells, nuclear extract
Experimental: (§1) The selectivity of individual members of the library for the HOXA1-PBX1/DNA target, as well as the ability of some analogs to cross over to other transcription factor targets was evaluated by testing them in parallel against the BRN1 & BRN2 transcription factors. BRN1 and BRN2 are members of mammalian class III POU transcription factor family and are expressed in the developing embryonic brain (McEvilly et al., Science 295:1528 (2002), which is hereby incorporated by reference in its entirety). POU domain class transciption factors contain, in addition to the POU domain, a homeodomain helix-turn-helix class DNA binding motif similar to that found in the HOX and PBX class transcription factors (Josephson et al., Development 125:3087 (1998); Hara et al., PNAS 89(8):3280 (1992), which are hereby incorporated by reference in their entirety). EMSAs were performed with BRN1 & BRN2 exactly as was done with HOXA1-PBX1 except that a sequence recognition element known to bind BRN1/BRN2 was used as the probe (Pruitt et al., Gene Expression Patterns 4(6):671 (2004), which is hereby incorporated by reference in its entirety).

[4] = target: T4, BRN1/DNA (Mus musculus, UniProt P31361); experiment: EMSA, BRN1/DNA complex (nuclear extracts from RA treated P19 cells); format: binding; settings: EMSA with BRN1 recognition element probe
T4 construct: using nuclear extracts from RA treated P19 cells; endogenous in cells; host or cells: RA-treated P19 cells, nuclear extract
T4 sequence (P31361 1-497): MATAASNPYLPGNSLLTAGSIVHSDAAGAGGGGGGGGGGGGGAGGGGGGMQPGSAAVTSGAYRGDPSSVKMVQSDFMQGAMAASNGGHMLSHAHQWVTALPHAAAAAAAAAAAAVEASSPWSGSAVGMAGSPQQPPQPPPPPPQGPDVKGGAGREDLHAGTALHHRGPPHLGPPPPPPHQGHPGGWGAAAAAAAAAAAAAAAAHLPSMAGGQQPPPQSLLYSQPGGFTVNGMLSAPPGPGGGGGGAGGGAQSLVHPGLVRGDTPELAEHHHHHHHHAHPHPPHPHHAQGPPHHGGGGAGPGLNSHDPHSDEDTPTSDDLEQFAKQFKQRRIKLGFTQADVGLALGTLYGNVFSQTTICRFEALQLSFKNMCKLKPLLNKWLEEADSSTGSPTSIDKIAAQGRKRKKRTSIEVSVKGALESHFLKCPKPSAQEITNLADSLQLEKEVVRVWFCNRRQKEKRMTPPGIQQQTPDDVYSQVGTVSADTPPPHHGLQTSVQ
Experimental: as §1

[5] = target: T5, HOX-PBX1 cooperative DNA binding (Homo sapiens, UniProt P40424); settings: literature value (Knoepfler et al. 1995); read-out: IC50 for blocking cooperative HOX-PBX DNA binding; cited from earlier work
T5 sequence (P40424 1-430): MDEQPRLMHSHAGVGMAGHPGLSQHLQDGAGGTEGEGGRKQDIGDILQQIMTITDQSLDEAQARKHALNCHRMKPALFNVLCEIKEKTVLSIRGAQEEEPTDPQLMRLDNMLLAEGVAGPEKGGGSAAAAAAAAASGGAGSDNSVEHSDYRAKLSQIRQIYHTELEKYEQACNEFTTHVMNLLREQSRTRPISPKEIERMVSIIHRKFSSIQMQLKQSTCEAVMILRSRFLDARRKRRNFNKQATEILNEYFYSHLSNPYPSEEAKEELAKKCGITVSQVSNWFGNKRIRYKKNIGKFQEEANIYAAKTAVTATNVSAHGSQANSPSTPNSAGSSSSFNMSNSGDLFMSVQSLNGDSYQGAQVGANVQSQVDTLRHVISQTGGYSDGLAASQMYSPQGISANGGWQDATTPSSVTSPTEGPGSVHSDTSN

[6] = Table 1, EMSA, averaged densitometric analysis of multiple gels
[7] = Table 2, 5,6,7,8-tetrahydro-naphthalenes
[8] = Table 3, tricyclo[6.2.2.0^2,7]dodeca-2(7),3,5-trienes

T3 sequence (P31360 whole entry): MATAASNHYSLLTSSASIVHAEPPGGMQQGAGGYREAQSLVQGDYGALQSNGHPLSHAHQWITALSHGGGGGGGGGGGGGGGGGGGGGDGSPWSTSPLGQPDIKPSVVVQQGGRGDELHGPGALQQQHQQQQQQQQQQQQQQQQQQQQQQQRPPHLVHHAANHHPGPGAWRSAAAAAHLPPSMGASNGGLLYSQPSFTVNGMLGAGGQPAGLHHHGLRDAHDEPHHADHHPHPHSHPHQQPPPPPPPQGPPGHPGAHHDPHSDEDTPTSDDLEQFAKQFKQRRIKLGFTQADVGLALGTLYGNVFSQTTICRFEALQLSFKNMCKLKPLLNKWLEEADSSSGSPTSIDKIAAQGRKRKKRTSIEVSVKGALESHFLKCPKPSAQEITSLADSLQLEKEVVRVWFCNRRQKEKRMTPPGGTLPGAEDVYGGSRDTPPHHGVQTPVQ

IC50 [1, 6]: 272 µM
Compound: NC(=O)COc1ccc(C(=O)Nc2cccc(F)c2)c2ccccc12 [Compound 7]

IC50 [1, 6]: 272 µM
Compound: CC(C)NC(=O)COc1ccc(C(=O)Nc2cccc(F)c2)c2ccccc12 [Compound 12]

IC50 [1, 6]: 254 µM
Compound: O=C(COc1ccc(C(=O)Nc2cccc(F)c2)c2ccccc12)Nc1ccccc1 [Compound 23]

IC50 [1, 6]: 293 µM
Compound: O=C(COc1ccc(C(=O)Nc2cccc(F)c2)c2ccccc12)Nc1ccc(F)cc1 [Compound 26]

IC50 [1, 6]: 718 µM
Compound: COc1ccccc1NC(=O)COc1ccc(C(=O)Nc2cccc(F)c2)c2ccccc12 [Compound 27]

IC50 [1, 6]: 580 µM
Compound: COc1cccc(NC(=O)COc2ccc(C(=O)Nc3cccc(F)c3)c3ccccc23)c1 [Compound 28]

IC50 [1, 6]: 161 µM
Compound: COc1ccc(NC(=O)COc2ccc(C(=O)Nc3cccc(F)c3)c3ccccc23)cc1 [Compound 29]

IC50 [1, 6]: 86 µM
IC50 [3]: 148 µM
IC50 [4]: 142 µM
Compound: O=C(COc1ccc(C(=O)Nc2cccc(F)c2)c2ccccc12)Nc1cccc(O)c1 [Compound 30]

IC50 [1, 6]: 65 µM
Selectivity for HOXA1-PBX1/DNA ternary complex relative to the other complexes tested [1]: some selectivity
Inhibition of formation of the PBX1/DNA binary complex [2]: inhibited
Binary PBX/DNA band intensity at low compound concentrations ([2]; dose-response, low concentrations): increased
IC50 [3]: 138 µM
IC50 [4]: 124 µM
Compound: O=C(COc1ccc(C(=O)Nc2cccc(F)c2)c2ccccc12)Nc1ccc(O)cc1 [Compound 31]

IC50 [1, 6]: 464 µM
Compound: COc1ccc(NC(=O)COc2ccc(C(=O)Nc3cccc(F)c3)c3ccccc23)cc1OC [Compound 34]

Second part, the compound before the results:

Compound: CCCNC(=O)COc1ccc(C(=O)Nc2cccc(F)c2)c2ccccc12 [Compound 11]
IC50 [1, 6]: 278 µM

Compound: CC(C)CNC(=O)COc1ccc(C(=O)Nc2cccc(F)c2)c2ccccc12 [Compound 13]
IC50 [1, 6]: 298 µM

Compound: O=C(COc1ccc(C(=O)Nc2cccc(F)c2)c2ccccc12)NC1CC1 [Compound 15]
IC50 [1, 6]: 173 µM
Selectivity for HOXA1-PBX1/DNA ternary complex relative to the other complexes tested [1]: selective
Inhibition of formation of the PBX1/DNA binary complex [2]: ternary complex only
IC50 [3]: > 10000 µM
IC50 [4]: 810 µM

Compound: C#CCNC(=O)COc1ccc(C(=O)Nc2cccc(F)c2)c2ccccc12 [Compound 16]
IC50 [1, 6]: 331 µM

Compound: O=C(COc1ccc(C(=O)Nc2cccc(F)c2)c2ccccc12)NCC(F)(F)F [Compound 17]
IC50 [1, 6]: 111 µM
IC50 [3]: 204 µM
IC50 [4]: 162 µM

Compound: O=C(COc1ccc(C(=O)Nc2cccc(F)c2)c2c1CCCC2)NC1CC1 [Compound 48]
IC50 [1, 7]: 66 µM

Compound: O=C(COc1ccc(C(=O)Nc2cccc(F)c2)c2c1CCCC2)NCC(F)(F)F [Compound 49]
IC50 [1, 7]: 84 µM

Compound: O=C(COc1ccc(C(=O)Nc2cccc(F)c2)c2c1CCCC2)Nc1ccc(O)cc1 [Compound 50]
IC50 [1, 7]: 96 µM

Compound: O=C(COc1ccc(C(=O)Nc2cccc(F)c2)c2c1C1CCC2CC1)NC1CC1 [Compound 61]
IC50 [1, 8]: 562 µM

Compound: O=C(COc1ccc(C(=O)Nc2cccc(F)c2)c2c1C1CCC2CC1)Nc1ccc(O)cc1 [Compound 62]
IC50 [1, 8]: 196 µM

Compound: O=C(COc1ccc(C(=O)Nc2cccc(F)c2)c2c1C1CCC2CC1)NCC(F)(F)F [Compound 63, 6-[(2,2,2-Trifluoro-ethylcarbamoyl)-methoxy]-tricyclo[6.2.2.0^2,7]dodeca-2,4,6-triene-3-carboxylic Acid (3-fluoro-phenyl)-amide]
IC50 [1, 8]: 258 µM

Compound: QPQIYPWMRKLH
IC50 [5]: 100 µM
